Data from patent US20140287925A1, “SOLUTIONS OF CIPC AND OF A TERPENE OR OF A TERPENE OIL AND THEIR USES FOR THE ANTIGERMINATIVE TREATMENT OF BULBS OR TUBERS” (priority 2003, published 2014).

What was measured:
[1] = Solubility of CIPC (maximum concentration obtained in solvents); format: physicochemical; conditions: in terpenes and/or terpene oils, clear solutions, at room temperature or even as low as 0° C.
Experimental: Moreover, CIPC is sparingly soluble in conventional solvents, and maximum CIPC concentrations of the order of 30% (weight/volume) are generally obtained. At best, concentrations of the order of about 54% at 180° C. have been obtained. This low solubility therefore implies the use of large quantities of solvent and/or of formulation in order to obtain the required quantities of active formula. Now, it is sought in general to limit the use of these solvents because of their own toxicity and/or of the danger involved in using them, in particular because of their low boiling points which cause high risks of inflammability.
It has now been discovered, and that is one of the subjects of the present invention, that terpenes and/or terpene oils have a high CIPC-dissolving power. In particular, the use of such terpenes and/or terpene oils makes it possible to obtain clear CIPC solutions and to reach CIPC concentrations greater than 50% by weight of CIPC relative to the total volume of the solution, at room temperature, or even temperatures as low as 0° C. Consequently, the formulations of the present invention make it possible to limit the quantity of formulated product to be used.

[2] = cited from earlier work

CC(C)OC(=O)Nc1cccc(Cl)c1 [CIPC, isopropyl (3-chlorophenyl)carbamate]
CIPC concentration reached [1]: greater than 50 % by weight of CIPC relative to the total volume of the solution
CIPC concentration obtained at best ([2]; conventional solvents, at 180° C.): about 54%
maximum CIPC concentration ([2]; in conventional solvents): ~30 % (weight/volume)
